Two molecules from patent publication US10174067B2, “Type of cytidine derivative and application thereof” (priority 2014, dated 2019) can be followed below.

The data set is described as follows: in vivo. Particulars: female, mouse, in vivo, ip. The method in brief:
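Female SPF ICR mice received a single ip dose in ethanol/Cremophor EL/saline (5:5:90), with dose lowered after deaths and raised otherwise. MTD defined as dose causing no death, no >10% weight loss versus Day 0 and no significant side effects; daily weights and twice-daily clinical observation over 7-14 days.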

Molecule `O=C(COc1nc(Cl)c(Cl)cc1Cl)OC[C@H]1O[C@@H](n2cc(Br)c(NC(=O)OCc3ccccc3)nc2=O)C(F)(F)C1O` (some centres unmarked) [Compound G10] came in with an MTD at 7 days of 400 mg/kg.
The value for `CCCCOC(=O)Nc1nc(=O)n([C@@H]2O[C@H](COC(=O)Cn3cnc([N+](=O)[O-])c3)C(O)C2(F)F)cc1I` (some centres unmarked) [Compound G12] was 400 mg/kg.
